Article PMC3538728 (PLoS ONE, 2013)
Where “and” joins values, the source holds several entries; their conditions need not be identical. Equal values may be shown once. Read-outs that look alike come from different tables or passages of the source. Marks after values point to notes of the source that are not given here.

Target: T1, γ-secretase (Homo sapiens, UniProt P49768)
T1 construct: γ-Secretase is composed of four subunits: Aph1, Pen2, glycosylated nicastrin, and endo-proteolyzed presenilin as the catalytic core; endogenous in cells; host or cells: HeLa S3 (ATCC CCL-2.2)
T1 sequence (Q9NZ42 whole entry, other chains not shown): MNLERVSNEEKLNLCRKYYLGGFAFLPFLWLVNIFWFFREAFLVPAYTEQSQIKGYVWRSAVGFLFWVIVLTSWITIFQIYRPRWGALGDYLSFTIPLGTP
T1 sequence (Q92542 34-709, other chains not shown, further chain): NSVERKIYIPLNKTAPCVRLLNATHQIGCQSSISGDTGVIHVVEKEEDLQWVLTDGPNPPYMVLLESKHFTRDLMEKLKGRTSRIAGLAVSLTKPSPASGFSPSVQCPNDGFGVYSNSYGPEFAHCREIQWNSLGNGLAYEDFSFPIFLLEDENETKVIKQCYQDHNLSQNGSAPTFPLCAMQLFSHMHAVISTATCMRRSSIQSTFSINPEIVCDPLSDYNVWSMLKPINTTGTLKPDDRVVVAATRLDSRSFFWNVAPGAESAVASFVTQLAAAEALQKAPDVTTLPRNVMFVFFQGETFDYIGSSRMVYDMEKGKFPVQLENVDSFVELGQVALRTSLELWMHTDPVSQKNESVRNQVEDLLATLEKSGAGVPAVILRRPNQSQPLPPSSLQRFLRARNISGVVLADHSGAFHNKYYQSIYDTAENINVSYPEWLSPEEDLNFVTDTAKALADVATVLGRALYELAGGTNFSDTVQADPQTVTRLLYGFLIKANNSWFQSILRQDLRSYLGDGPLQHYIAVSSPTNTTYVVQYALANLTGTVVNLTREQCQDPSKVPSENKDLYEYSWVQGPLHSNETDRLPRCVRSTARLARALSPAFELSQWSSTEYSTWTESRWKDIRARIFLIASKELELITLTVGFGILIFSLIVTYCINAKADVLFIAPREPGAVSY
T1 sequence (Q96BI3 whole entry, other chains not shown, further chain): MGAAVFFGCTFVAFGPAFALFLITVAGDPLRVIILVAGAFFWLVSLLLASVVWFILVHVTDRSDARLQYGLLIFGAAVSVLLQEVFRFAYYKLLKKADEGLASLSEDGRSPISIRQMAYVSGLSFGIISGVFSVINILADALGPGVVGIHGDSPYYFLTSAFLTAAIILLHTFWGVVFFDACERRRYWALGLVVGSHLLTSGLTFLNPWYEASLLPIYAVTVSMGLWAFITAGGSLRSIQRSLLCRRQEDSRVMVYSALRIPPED
Experiment: Aβ 1–40 secretion from HeLa cells in the presence of DAPT (sandwich ELISA), dose-response fits
Type: cell-based
Description: HeLa cells have been transfected using Lipofectamine LTX™ reagent following the manufacturer instructions. The transfection protocol and concentration of pSG5-cDNAwtC99 plasmid have been optimized to achieve desired assay sensitivity, a gradual increase in the substrate expression level, and a smooth transition from biphasic to the standard dose-response curves (Figs. 2–3). Initially concentration of pSG5-cDNAwtC99 plasmid have been optimized by western blots using anti-flag αM2 monoclonal antibody as described in our previous study. The cells were transfected in 24-well plates. The day before transfection the cells were trypsinized and counted. About 0.85×10^5 cells were seeded per well in 0.5 ml of complete growth medium to achieve about 75% confluent cultures on the day of transfection. Before the transfection old medium was removed and replaced with fresh 0.5 ml of complete growth medium. For transfection 5X DNA concentration was diluted in 500 µl of Opti-MEM®I Reduced Serum Media and mixed with 0.7 µl of Lipofectamine LTX™ Reagent. The solution was gently mixed and incubated for 30 minutes at room temperature to form DNA- Lipofectamine LTX™ Reagent complexes. Following the 30 min incubation, 100 µl of the DNA- Lipofectamine LTX™ Reagent complexes was added directly to each well containing cells and mixed gently by rocking the plate back and forth. The cells were incubated at 37°C in a CO2 incubator for 18 hours.
Fresh medium was added 18 hours after the transfection (0.5 ml per well), to prepare the cells for incubation with DAPT [18], [51]. Different concentrations of DAPT were prepared in DMSO, and added to the cells so that the final DMSO concentration in the culture was 0.1% (v/v). DMSO vehicle represents 0 nM DAPT. The cells were incubated with DAPT at given concentrations for 15 hours.
The assay linear response is in the range from 6–125 pM of Aβ 1–40. The assays were performed by closely following the manufacturer instructions. […] Each well was filled with 50 µl of the antibody conjugate solution and 50 µl of sample. The Aβ 1–40 standards were supplied by the manufacturer and prepared in parallel with other samples. All of the prepared wells were wrapped in aluminum foil and incubated overnight at 4°C with gentle mixing. The next day each well was washed five times with 300 µl of wash solution. After each […] wash, the wash solution was poured out and the wells were dried by tapping the plates on an absorbing paper. Washed wells were filled with 100 µl of the enzyme conjugate solution, covered, and incubated for 30 min at room temperature with shaking. The washing procedure was repeated once again to remove excess of the enzyme-conjugate. Next 100 µl of the substrate solution was added in each well in dark, and kept for 30 minutes covered at room temperature. The reaction was quenched by adding 50 µl of stop solution to each well, and within 15 min the signal intensity was read by measuring absorption at 450 nm.
All experimental results were analyzed using MicroCal Origin 7.0 program, nonlinear regressions, and equations that represent specific mechanism. All results are reported as the best fit value ± standard error with two-sigma confidence intervals shown in square brackets (i.e. x±y [p, q]). Briefly, the standard error indicates random errors (i.e. precision) for each method, while the two sigma confidence intervals indicate the ability of given experimental setup to provide information about specific best-fit parameter. The random error for presented experiments is low, as indicated by a low scatter from the best fit values. The sharp confidence intervals can be obtained by taking a large number of independent data points that cover all segments that define the measured functions. […]

[1] = HeLa, 250 ng/mL pSG5-cDNAwtC99, eqn. 2
[2] = HeLa, 400 ng/mL pSG5-cDNAwtC99, eqn. 2
[3] = HeLa, 600 ng/mL pSG5-cDNAwtC99, eqn. 2
[4] = HeLa, 800 ng/mL pSG5-cDNAwtC99, eqn. 2
[5] = average over 0-92 ng/mL pSG5-cDNAwtC99
[6] = untransfected HeLa cells, eqn. 1, six free fit parameters
[7] = untransfected HeLa cells, eqn. 1 with IA and MI as constants
[8] = untransfected HeLa cells, measured separately, taken as constant in regression

C[C@H](NC(=O)Cc1cc(F)cc(F)c1)C(=O)N[C@H](C(=O)OC(C)(C)C)c1ccccc1 [DAPT, N-[N-(3,5-difluorophenacetyl)-L-alanyl]-S-phenylglycine t-butyl ester]
Maximal Inhibition, MI (HeLa, 92 ng/mL pSG5-cDNAwtC99, eqn. 1): 1.9 ± 0.6 pM per 10^6 cells | Initial Activity, IA (HeLa, 92 ng/mL pSG5-cDNAwtC99, eqn. 1, activity at zero DAPT): 119 ± 4 pM per 10^6 cells | EC50 (HeLa, 92 ng/mL pSG5-cDNAwtC99, eqn. 1, read-out: Activation EC50): 0.178 ± 0.045 µM | IC50 (HeLa, 92 ng/mL pSG5-cDNAwtC99, eqn. 1, read-out: Inhibition IC50): 0.661 ± 0.08 µM | Inhibition Hill's coef [1]: 1.02 ± 0.07 | Maximal Inhibition, MI [1]: -0.9 ± 0.4 pM per 10^6 cells | Initial Activity, IA (HeLa, 250 ng/mL pSG5-cDNAwtC99, eqn. 2, activity at zero DAPT): 229 ± 4 pM per 10^6 cells | IC50 (HeLa, 250 ng/mL pSG5-cDNAwtC99, standard dose-response, eqn. 2, read-out: Inhibition IC50): 0.126 ± 0.009 µM | Inhibition Hill's coef [2]: 0.95 ± 0.04 | Maximal Inhibition, MI [2]: 2.0 ± 0.9 pM per 10^6 cells | Initial Activity, IA (HeLa, 400 ng/mL pSG5-cDNAwtC99, eqn. 2, activity at zero DAPT): 190 ± 2 pM per 10^6 cells | IC50 (HeLa, 400 ng/mL pSG5-cDNAwtC99, standard dose-response, eqn. 2, read-out: Inhibition IC50): 0.11 ± 0.008 µM | Inhibition Hill's coef [3]: 0.84 ± 0.03 | Maximal Inhibition, MI [3]: -4 ± 2 pM per 10^6 cells | Initial Activity, IA (HeLa, 600 ng/mL pSG5-cDNAwtC99, eqn. 2, activity at zero DAPT): 140 ± 4 pM per 10^6 cells | IC50 (HeLa, 600 ng/mL pSG5-cDNAwtC99, standard dose-response, eqn. 2, read-out: Inhibition IC50): 0.098 ± 0.006 µM | Inhibition Hill's coef [4]: 0.61 ± 0.07 | Maximal Inhibition, MI [4]: 2 ± 0.8 pM per 10^6 cells | Initial Activity, IA (HeLa, 800 ng/mL pSG5-cDNAwtC99, eqn. 2, activity at zero DAPT): 90 ± 1 pM per 10^6 cells | IC50 (HeLa, 800 ng/mL pSG5-cDNAwtC99, standard dose-response, eqn. 2, read-out: Inhibition IC50): 0.089 ± 0.005 µM | mode of inhibition (at saturating C99 substrate): noncompetitive inhibitor | Activation Hill coef., average [5]: 1.0 ± 0.1 | Inhibition Hill's coef, average [5]: 2.1±0.2 | Maximal Inhibition, MI, average [5]: 0.5 ± 0.2 pM per 10^6 cells | IC50 (average over 0-92 ng/mL pSG5-cDNAwtC99 (all biphasic curves), read-out: Inhibition IC50, average): 0.534 ± 0.053 µM | EC50 (average over 0-92 ng/mL pSG5-cDNAwtC99 (all biphasic profiles), read-out: Activation EC50, average): 0.111 ± 0.041 µM | Maximal Activity, MA, average (average over 0-92 ng/mL pSG5-cDNAwtC99 (biphasic curves)): 189 pM per 10^6 cells | Maximal Inhibition, MI, average (average over 250-800 ng/mL pSG5-cDNAwtC99): -0.5 ± 0.6 pM per 10^6 cells | IC50 (average over 250-800 ng/mL pSG5-cDNAwtC99 (standard dose-response curves), read-out: Inhibition IC50, average): 0.106 ± 0.016 µM | potential to activate γ-secretase activity (MA vs. IA) (if binding only at the activation site, 31 pM vs. 196 pM Aβ 1–40 per 10^6 cells): ~7 fold | cDNAwtC99 required to reach activation by DAPT (transfection without DAPT giving same Aβ 1-40 secretion as endogenous substrate at 33 nM DAPT): 70 ng/mL | cDNAwtC99 required to reach activation by DAPT (transfection without DAPT giving same Aβ 1-40 secretion as endogenous substrate at 100 nM DAPT): 120 ng/mL | cDNAwtC99 required to reach activation by DAPT (transfection without DAPT giving same Aβ 1-40 secretion as endogenous substrate at 333 nM DAPT): 118 ng/mL | cDNAwtC99 required to reach activation by DAPT (transfection without DAPT giving same Aβ 1-40 secretion as endogenous substrate at 500 nM DAPT): 100 ng/mL | cDNAwtC99 required to reach activation by DAPT (transfection without DAPT giving same Aβ 1-40 secretion as endogenous substrate at 1000 nM DAPT): 16 ng/mL | activity on Endogenous substrate (Aβ 1-40 secreted) (untransfected HeLa cells, 33 nM DAPT): 81.1 pM per 10^6 cells | activity on Endogenous substrate (Aβ 1-40 secreted) (untransfected HeLa cells, 100 nM DAPT): 132 pM per 10^6 cells and 132.0 pM per 10^6 cells | activity on Endogenous substrate (Aβ 1-40 secreted) (untransfected HeLa cells, 333 nM DAPT): 129.0 pM per 10^6 cells | activity on Endogenous substrate (Aβ 1-40 secreted) (untransfected HeLa cells, 500 nM DAPT): 111.6 pM per 10^6 cells | activity on Endogenous substrate (Aβ 1-40 secreted) (untransfected HeLa cells, 1000 nM DAPT): 43.0 pM per 10^6 cells | observed maximal activity, Aβ 1–40 secreted (untransfected HeLa cells, at 108 nM DAPT): 145 pM per 10^6 cells | Activation Hill's coef [6]: 1.09 ± 0.4 | Inhibition Hill's coef [6]: 1.9±0.5 and 1.92 ± 0.5 | Activation Hill's coef [7]: 1.09 ± 0.16 | Inhibition Hill's coef [7]: 1.92 ± 0.25 | Maximal Activity, MA [7]: 196 ± 35 pM per 10^6 cells | EC50 (untransfected HeLa cells, eqn. 1 with IA and MI as constants, read-out: Activation EC50): 0.072 ± 0.009 µM | IC50 (untransfected HeLa cells, eqn. 1 with IA and MI as constants, read-out: Inhibition IC50): 0.472 ± 0.035 µM | Initial Activity, IA [8]: 31 ^c pM per 10^6 cells | Maximal Inhibition, MI [8]: 0 ^c pM per 10^6 cells | DAPT concentration at which maximal activity is observed (untransfected HeLa cells, peak of biphasic curve): 108 nM
